Source: patent US5559115A, “Oncogene function-inhibitory agent, method for inhibiting oncogene function, and treatment of cancer” (Terumo Kabushiki Kaisha, priority 1993, dated 1996)
Structures can show the parent of a compound that is named as a salt.

Legend:
[1] = Acute toxicity (LD50) on mouse upon intravenous injection; format: in vivo; conditions: in vivo, intravenous injection
Experimental: Toxicity (LD50) on mouse of III-121C upon intravenous injection was measured.

K-ras^ts-NRK cells = test: Action mechanism: morphology / M phase observation in K-ras^ts-NRK cells; format: cell-based, rat; conditions: 33° C., 0.1 μg/ml, after one day
Experimental: Before the addition of the III-121C, the cells grew atop the other and had projections or processes on their surface (FIG. 9(a)).
The procedure as described above was repeated by replacing the III-121C with 0.1 μg/ml of vinblastine, 0.1 μg/ml of vincristine and 0.1 μg/ml of colchicine, which are known as microtubule formation inhibitors.

Ras protein = conditions: cited from earlier work
K-ras-NRK cells = test: Action mechanism: flow-cytometric DNA content analysis of K-ras-NRK cells; format: cell-based, rat; conditions: 24 hours; III-121C 0.3 and 1 μg/ml, vinblastine 0.1 μg/ml (FIG. 11)
Experimental: FIGS. 11(a) to (d) are graphs showing the results of flow-cytometric analysis wherein the number of cells is depicted in relation to their DNA content, upon addition of no reagent (FIG. 11(a)), 0.3 μg/ml of III-121C (FIG. 11(b)), 1 μg/ml of III-121C (FIG. 11(c)), and 0.1 μg/ml of vinblastine (FIG. 11(d)) to the K-ras NRK cell culture.
To the cells of K-ras-NRK in their propagation was added either one of III-121C and vinblastine. No reagent was added to the control cells. After 24 hours from the addition, the cells were fractionated with a cell sorter to examine the DNA quantity in relation to the number of the cells.

Row | Structure (SMILES) | LD50 [1] | number of circular or elongated cells in M phase (K-ras^ts-NRK cells) | other results
1 | CC[C@]1(O)C[C@H]2CN(CCc3c([nH]c4ccccc34)[C@@](C(=O)OC)(c3cc4c(cc3OC)N(C=O)[C@H]3[C@@](O)(C(=O)OC)[C@H](OC(C)=O)[C@]5(CC)C=CCN6CC[C@]43[C@@H]65)C2)C1 [vincristine sulfate, reference compound] | 2.5 mg/kg | – | –
2 | COc1cc2c(c(OC)c1OC)-c1ccc(OC)c(=O)cc1[C@@H](NC(C)=O)CC2 [colchicine, reference compound] | – | a significant increase in the number of circular or elongated cells that are in their M phase of the cell cycle | –
3 | CC[C@]1(O)C[C@H]2CN(CCc3c([nH]c4ccccc34)[C@@](C(=O)OC)(c3cc4c(cc3OC)N(C=O)[C@H]3[C@@](O)(C(=O)OC)[C@H](OC(C)=O)[C@]5(CC)C=CCN6CC[C@]43[C@@H]65)C2)C1 [vincristine, reference compound] | – | a significant increase in the number of circular or elongated cells that are in their M phase of the cell cycle | –
4 | CC[C@]1(O)C[C@@H]2CN(CCc3c([nH]c4ccccc34)[C@@](C(=O)OC)(c3cc4c(cc3OC)N(C)[C@H]3[C@@](O)(C(N)=O)[C@H](O)[C@]5(CC)C=CCN6CC[C@]43[C@@H]65)C2)C1 [vindecine sulfate, reference compound] | 9.1 mg/kg | – | –
5 | Nc1nc2c(ncn2[C@@H]2O[C@H](CO)[C@@H](O)[C@H]2O)c(=O)o1 [oxanosin] | – | – | inhibition of the action of the ras oncogene product (Ras protein) (Ras protein): capable of inhibiting the action of the ras oncogene product
6 | CC[C@]1(O)C[C@@H]2CN(CCc3c([nH]c4ccccc34)[C@@](C(=O)OC)(c3cc4c(cc3OC)N(C)[C@H]3[C@@](O)(C(=O)OC)[C@H](OC(C)=O)[C@]5(CC)C=CCN6CC[C@]43[C@@H]65)C2)C1 [vinblastine, reference compound] | – | a significant increase in the number of circular or elongated cells that are in their M phase of the cell cycle | cell cycle / cell division inhibition (K-ras-NRK cells): inhibition of G2 /M phase in the cell cycle; distribution of DNA quantity in cells (K-ras-NRK cells): an increase in the number of cells having a relatively large quantity of DNA was observed
7 | CC[C@H](C)C(=O)O[C@H]1CCC=C2C=C[C@H](C)[C@H](CC[C@@H]3C[C@@H](O)CC(=O)O3)[C@H]21 [compactin] | – | – | inhibition of the action of the ras oncogene product (Ras protein) (Ras protein): capable of inhibiting the action of the ras oncogene product
8 | CC[C@]1(O)C[C@@H]2CN(CCc3c([nH]c4ccccc34)[C@@](C(=O)OC)(c3cc4c(cc3OC)N(C)[C@H]3[C@@](O)(C(=O)OC)[C@H](OC(C)=O)[C@]5(CC)C=CCN6CC[C@]43[C@@H]65)C2)C1 [vinblastine sulfate, reference compound] | 15.2 mg/kg | – | –
